# Laboratory results as given in patent US7998978B2 (Pfizer Inc., priority 2006, dated 2011).
# pKi: −log10 of the molar value.
# Target: T1, JNK1α1 (Homo sapiens, UniProt P45983)
# T1 construct: catalytic domain containing amino acids 1-364 and N-terminal hexahistidine tag; hexahistidine (His6) (N); made in house; host or cells: E. coli BL21 (DE3)
# Assay: Coupled spectrophotometric (PK/LDH) JNK1α1 assay: % inhibition and Ki determination
# Format: biochemical
# Conditions: @1 uM; read-out: % Inhibition JNK-1
# In short: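 Initial rates were taken from the absorbance decrease at 340 nm at 30° C. Ki was fitted with a tight-binding model over 11 concentrations (top 100 μM); single-point inhibition was tested at 1 or 10 μM.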
# T1 sequence (P45983 1-364): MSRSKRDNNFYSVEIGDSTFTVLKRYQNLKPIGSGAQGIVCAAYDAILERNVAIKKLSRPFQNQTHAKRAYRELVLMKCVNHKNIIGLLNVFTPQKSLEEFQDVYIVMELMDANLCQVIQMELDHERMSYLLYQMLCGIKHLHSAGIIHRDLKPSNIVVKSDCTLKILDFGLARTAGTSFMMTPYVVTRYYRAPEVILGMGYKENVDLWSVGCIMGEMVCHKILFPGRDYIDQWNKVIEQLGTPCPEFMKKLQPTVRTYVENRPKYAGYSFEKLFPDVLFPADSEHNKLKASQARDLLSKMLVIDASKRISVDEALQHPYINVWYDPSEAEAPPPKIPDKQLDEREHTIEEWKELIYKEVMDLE
row,SMILES,inhibition at 1 µM
1,"O[C@H]1CC[C@H](Nc2ncc3ccc(OCc4nc5ccccc5[nH]4)cc3n2)CC1 [Example 288, trans-4-{[7-(1H-benzimidazol-2-ylmethoxy)quinazolin-2-yl]amino}cyclohexanol]",39%
2,"O=C1CN2C[C@@H](Oc3ccc4cnc(N[C@H]5CC[C@H](O)CC5)nc4c3)CC[C@H]2CN1 [Example 287, (7S,9aS)-7-({2-[(trans-4-hydroxycyclohexyl)amino]quinazolin-7-yl}oxy)hexahydro-2H-pyrido[1,2-a]pyrazin-3(4H)-one]",62%
3,"O=C(NCCN1CCNC1=O)c1cccc2cnc(N[C@H]3CC[C@H](O)CC3)nc12 [Example 476, 2-[(trans-4-hydroxycyclohexyl)amino]-N-[2-(2-oxoimidazolidin-1-yl)ethyl]quinazoline-8-carboxamide]",10%
4,"Cc1nnc(CCNC(=O)c2cccc3cnc(N[C@H]4CC[C@H](O)CC4)nc23)[nH]1 [Example 478, 2-[(trans-4-hydroxycyclohexyl)amino]-N-[2-(5-methyl-4H-1,2,4-triazol-3-yl)ethyl]quinazoline-8-carboxamide]",12%

# Same assay, conditions: @10 uM; read-out: % Inhibition JNK-1
row,SMILES,inhibition at 10 µM
1,"CC(C)Oc1ccc(CNc2cc3cc(-c4cn[nH]c4)ccc3cn2)cc1CO [Example 234, [2-isopropoxy-5-({[6-(1H-pyrazol-4-yl)isoquinolin-3-yl]amino}methyl)phenyl]methanol]",19%
2,"C[C@@H](CO)NC(=O)c1ccc2cnc(NC3CCC3)nc2c1 [Example 437, 2-(cyclobutylamino)-N-[(1S)-2-hydroxy-1-methylethyl]quinazoline-7-carboxamide]",57%
3,"O=C(Nc1nccc2cccnc12)c1cccc2cnc(N[C@H]3CC[C@H](O)CC3)nc12 [Example 315, 2-[(trans-4-hydroxycyclohexyl)amino]-N-1,7-naphthyridin-8-ylquinazoline-8-carboxamide]",52%
4,"Cc1cc(NC(=O)c2cccc3cnc(N[C@H]4CC[C@H](O)CC4)nc23)n(C(C)C)n1 [Example 312, 2-[(trans-4-hydroxycyclohexyl)amino]-N-(1-isopropyl-3-methyl-1H-pyrazol-5-yl)quinazoline-8-carboxamide]",76%
5,"O=C(NCc1ccc(C2CC2)cn1)c1cccc2cnc(N[C@H]3CC[C@H](O)CC3)nc12 [Example 518, N-[(5-cyclopropylpyridin-2-yl)methyl]-2-[(trans-4-hydroxycyclohexyl)amino]quinazoline-8-carboxamide]",60%

# Same assay, conditions: JNK-1
row,SMILES,pKi
1,"c1cc(OC2CCOCC2)c2nc(NC3CCOCC3)ncc2c1 [Example 175, N-(tetrahydro-2H-pyran-4-yl)-8-(tetrahydro-2H-pyran-4-yloxy)quinazolin-2-amine]",6.06
2,"CC(C)Nc1ncc2ccc(C(=O)NC(CO)c3ccccc3)cc2n1 (stereo not drawn) [Example 385, N-(2-hydroxy-1-phenylethyl)-2-(isopropylamino)quinazoline-7-carboxamide]",6.58
3,"O[C@H]1CC[C@H](Nc2ncc3cccc(OC4CCOCC4)c3n2)CC1 [Example 169, trans-4-{[8-(tetrahydro-2H-pyran-4-yloxy)quinazolin-2-yl]amino}cyclohexanol]",6.64
4,"FCCN[C@H]1CC[C@H](Nc2ncc3cccc(OC4CCOCC4)c3n2)CC1 [Example 189, trans-N-(2-fluoroethyl)-N′-[8-(tetrahydro-2H-pyran-4-yloxy)quinazolin-2-yl]cyclohexane-1,4-diamine]",6.06
5,"O=C(NCCc1ccccc1)c1ccc2cnc(N[C@H]3CC[C@H](O)CC3)nc2c1 [Example 82, 2-[(trans-4-hydroxycyclohexyl)amino]-N-(2-phenylethyl)quinazoline-7-carboxamide]",6.63
6,"COc1cc2c(cc1CNc1cc3cc(-c4cn[nH]c4)ccc3cn1)N(C)C(=O)CC2 [Example 219, 6-methoxy-1-methyl-7-({[6-(1H-pyrazol-4-yl)isoquinolin-3-yl]amino}methyl)-3,4-dihydroquinolin-2(1H)-one]",5.94
7,"O=C(NCC1(O)CCCCC1)c1ccc2cnc(N[C@H]3CC[C@H](O)CC3)nc2c1 [Example 327, 2-[(trans-4-hydroxycyclohexyl)amino]-N-[(1-hydroxycyclohexyl)methyl]quinazoline-7-carboxamide]",6.60
8,"CC(C)NC(=O)c1ccc2cnc(N[C@H]3CC[C@H](O)CC3)nc2c1 [Example 64, 2-[(trans-4-hydroxycyclohexyl)amino]-N-isopropylquinazoline-7-carboxamide]",6.34
9,"O=C(Cc1ccc(Oc2ccnc3ccsc23)cc1)Nc1cc2cc(-c3cn[nH]c3)ccc2cn1 [Example 24, N-[6-(1H-pyrazol-4-yl)isoquinolin-3-yl]-2-[4-(thieno[3,2-b]pyridin-7-yloxy)phenyl]acetamide]",7.60
10,"CCOC(=O)N1CC[C@@H](NC(=O)c2ccc3cnc(N[C@H]4CC[C@H](O)CC4)nc3c2)C1 [Example 364, ethyl 3-[({2-[(trans-4-hydroxycyclohexyl)amino]quinazolin-7-yl}carbonyl)amino]pyrrolidine-1-carboxylate]",5.70
11,"Cc1ccc2cnc(N[C@H]3CC[C@H](O)CC3)nc2c1OCC(=O)NC(C)C [Example 208, 2-({2-[(trans-4-hydroxycyclohexyl)amino]-7-methylquinazolin-8-yl}oxy)-N-isopropylacetamide]",5.95
12,"O[C@H]1CC[C@H](Nc2ncc3ccc(OCC4CCOC4)cc3n2)CC1 (stereo partly drawn) [Example 155, trans-4-{[7-(tetrahydrofuran-3-ylmethoxy)quinazolin-2-yl]amino}cyclohexanol]",6.81
13,"CCC(=O)N[C@H]1CC[C@H](Nc2ncc3cccc(OC4CCOCC4)c3n2)CC1 [Example 180, N-(trans-4-{[8-(tetrahydro-2H-pyran-4-yloxy)quinazolin-2-yl]amino}cyclohexyl)propanamide]",6.24
14,"CCC[C@@H](CO)NC(=O)c1ccc2cnc(NC3CCC3)nc2c1 [Example 398, 2-(cyclobutylamino)-N-[(1S)-1-(hydroxymethyl)butyl]quinazoline-7-carboxamide]",6.35
15,"O=C(NCc1ccc(F)cc1)c1ccc2cnc(N[C@H]3CC[C@H](O)CC3)nc2c1 [Example 88, N-(4-fluorobenzyl)-2-[(trans-4-hydroxycyclohexyl)amino]quinazoline-7-carboxamide]",6.94
16,"CC(C)[C@@H]1CC[C@@H](C)C[C@H]1OCC(=O)Nc1cc2cc(-c3cn[nH]c3)ccc2cn1 [Example 57, 2-{[(1R,2S,5R)-2-isopropyl-5-methylcyclohexyl]oxy}-N-[6-(1H-pyrazol-4-yl)isoquinolin-3-yl]acetamide]",8.40
17,"CC(C)(O)CNC(=O)c1cccc2cnc(N[C@H]3CC[C@H](NS(C)(=O)=O)CC3)nc12 [Example 130, N-(2-hydroxy-2-methylpropyl)-2-({trans-4-[(methylsulfonyl)amino]cyclohexyl}amino)quinazoline-8-carboxamide]",6.85
18,"c1cc(CNc2cc3cc(-c4cn[nH]c4)ccc3cn2)cc(-c2cncnc2)c1 [Example 223, 6-(1H-pyrazol-4-yl)-N-(3-pyrimidin-5-ylbenzyl)isoquinolin-3-amine]",5.48
19,"CC[C@@H](NC(=O)c1ccc2cnc(N[C@H]3CC[C@H](O)CC3)nc2c1)c1ccccc1 [Example 93, 2-[(trans-4-hydroxycyclohexyl)amino]-N-[(1R)-1-phenylpropyl]quinazoline-7-carboxamide]",7.51
20,"Cc1cccc(NC(=O)c2ccc3cnc(N[C@H]4CC[C@H](O)CC4)nc3c2)n1 [Example 369, 2-[(trans-4-hydroxycyclohexyl)amino]-N-(6-methylpyridin-2-yl)quinazoline-7-carboxamide]",5.64
21,"O=C(N[C@H]1c2ccccc2C[C@H]1O)c1cccc2cnc(N[C@H]3CC[C@H](O)CC3)nc12 [Example 463, 2-[(trans-4-hydroxycyclohexyl)amino]-N-[(1S,2R)-2-hydroxy-2,3-dihydro-1H-inden-1-yl]quinazoline-8-carboxamide]",6.31
22,"CC(C)(O)c1ccc(CNC(=O)c2ccc3cnc(N[C@H]4CC[C@H](O)CC4)nc3c2)cc1 [Example 366, 2-[(trans-4-hydroxycyclohexyl)amino]-N-[4-(1-hydroxy-1-methylethyl)benzyl]quinazoline-7-carboxamide]",5.66
23,"COc1ccccc1C(CO)NC(=O)c1ccc2cnc(N[C@H]3CC[C@H](O)CC3)nc2c1 (stereo partly drawn) [Example 97, 2-[(trans-4-hydroxycyclohexyl)amino]-N-[2-hydroxy-1-(2-methoxyphenyl)ethyl]quinazoline-7-carboxamide]",7.26
24,"CCC[C@@H](CO)NC(=O)c1ccc2cnc(NC3CCCCC3)nc2c1 [Example 376, 2-(cyclohexylamino)-N-[(1S)-1-(hydroxymethyl)butyl]quinazoline-7-carboxamide]",6.86
25,COc1ncccc1NC(=O)c1ccc2cnc(N[C@H]3CC[C@H](O)CC3)nc2c1 [Example 362],5.74
26,"O=C(N[C@H](CO)c1ccccc1)c1ccc2cnc(NC3CCCC3)nc2c1 [Example 384, 2-(cyclopentylamino)-N-[(1S)-2-hydroxy-1-phenylethyl]quinazoline-7-carboxamide]",6.59
27,"CC(C)C(=O)N[C@H]1CC[C@H](Nc2ncc3cccc(OC4CCOCC4)c3n2)CC1 [Example 181, 2-methyl-N-(trans-4-{[8-(tetrahydro-2H-pyran-4-yloxy)quinazolin-2-yl]amino}cyclohexyl)propanamide]",6.11
28,CC[C@H](C)[C@@H](CO)NC(=O)c1ccc2cnc(NC3CCCC3)nc2c1 [Example 396],6.37
29,"COc1ccnc(NC(=O)c2ccc3cnc(N[C@H]4CC[C@H](O)CC4)nc3c2)c1 [Example 361, 2-[(trans-4-hydroxycyclohexyl)amino]-N-(4-methoxypyridin-2-yl)quinazoline-7-carboxamide]",5.74
30,"CC(C)(CN1CCOCC1)NC(=O)c1cccc2cnc(N[C@H]3CC[C@H](O)CC3)nc12 [Example 105, N-(1,1-dimethyl-2-morpholin-4-ylethyl)-2-[(trans-4-hydroxycyclohexyl)amino]quinazoline-8-carboxamide]",6.15
